PMC6332354 (Molecules, 2015)

How the values were obtained:
[1] = tested on: human embryonic lung fibroblast (HELF) cells; test: In vitro cytotoxicity, MTT test; type: cell-based; settings: HELF (WI-38) cells, 48 h incubation
Description: In the cytotoxicity experiment, tetrazolium-based colorimetric assay (MTT test) was used to measure the cytotoxic effect of these selected potent compounds on normal cells. Human embryonic lung fibroblast cell line (HELF, WI-38) was purchased from the Cell Resource Center, Chinese Academy of Medical Sciences (Beijing, China). Briefly, cells (5000 per well) were collected and seeded in 96-well plates. After incubation for 24 h, cells were exposed to fresh medium containing various concentrations of test compound at 37 °C. After incubation for 48 h, 20 μL of MTT tetrazolium salt dissolved in phosphate buffered saline (PBS) at a concentration of 5 mg/mL was added to each well and incubated in a CO2 incubator for 4 h. The medium was then aspirated from each well and 150 μL of DMSO was added to dissolve formazan crystals. The absorbance of each well was measured by ELx808 Microplate Reader (BioTek, Winooski, VT, USA) at a test wavelength of 490 nm. TC50, the drug concentration which reduces the cell viability by 50% was calculated by the Logit method.

rat ACC2 = target: T1, rat ACC2 (Rattus norvegicus, UniProt D3ZBE2); test: ACC2 in vitro assay (Kinase-Glo Plus luminescence); type: biochemical; settings: arithmetic means of three experiments, standard deviation in parentheses
T1 construct: purchased Huawei Pharmaceutical Co. Ltd (Shanghai, China)
T1 sequence (D3ZBE2 17-2459): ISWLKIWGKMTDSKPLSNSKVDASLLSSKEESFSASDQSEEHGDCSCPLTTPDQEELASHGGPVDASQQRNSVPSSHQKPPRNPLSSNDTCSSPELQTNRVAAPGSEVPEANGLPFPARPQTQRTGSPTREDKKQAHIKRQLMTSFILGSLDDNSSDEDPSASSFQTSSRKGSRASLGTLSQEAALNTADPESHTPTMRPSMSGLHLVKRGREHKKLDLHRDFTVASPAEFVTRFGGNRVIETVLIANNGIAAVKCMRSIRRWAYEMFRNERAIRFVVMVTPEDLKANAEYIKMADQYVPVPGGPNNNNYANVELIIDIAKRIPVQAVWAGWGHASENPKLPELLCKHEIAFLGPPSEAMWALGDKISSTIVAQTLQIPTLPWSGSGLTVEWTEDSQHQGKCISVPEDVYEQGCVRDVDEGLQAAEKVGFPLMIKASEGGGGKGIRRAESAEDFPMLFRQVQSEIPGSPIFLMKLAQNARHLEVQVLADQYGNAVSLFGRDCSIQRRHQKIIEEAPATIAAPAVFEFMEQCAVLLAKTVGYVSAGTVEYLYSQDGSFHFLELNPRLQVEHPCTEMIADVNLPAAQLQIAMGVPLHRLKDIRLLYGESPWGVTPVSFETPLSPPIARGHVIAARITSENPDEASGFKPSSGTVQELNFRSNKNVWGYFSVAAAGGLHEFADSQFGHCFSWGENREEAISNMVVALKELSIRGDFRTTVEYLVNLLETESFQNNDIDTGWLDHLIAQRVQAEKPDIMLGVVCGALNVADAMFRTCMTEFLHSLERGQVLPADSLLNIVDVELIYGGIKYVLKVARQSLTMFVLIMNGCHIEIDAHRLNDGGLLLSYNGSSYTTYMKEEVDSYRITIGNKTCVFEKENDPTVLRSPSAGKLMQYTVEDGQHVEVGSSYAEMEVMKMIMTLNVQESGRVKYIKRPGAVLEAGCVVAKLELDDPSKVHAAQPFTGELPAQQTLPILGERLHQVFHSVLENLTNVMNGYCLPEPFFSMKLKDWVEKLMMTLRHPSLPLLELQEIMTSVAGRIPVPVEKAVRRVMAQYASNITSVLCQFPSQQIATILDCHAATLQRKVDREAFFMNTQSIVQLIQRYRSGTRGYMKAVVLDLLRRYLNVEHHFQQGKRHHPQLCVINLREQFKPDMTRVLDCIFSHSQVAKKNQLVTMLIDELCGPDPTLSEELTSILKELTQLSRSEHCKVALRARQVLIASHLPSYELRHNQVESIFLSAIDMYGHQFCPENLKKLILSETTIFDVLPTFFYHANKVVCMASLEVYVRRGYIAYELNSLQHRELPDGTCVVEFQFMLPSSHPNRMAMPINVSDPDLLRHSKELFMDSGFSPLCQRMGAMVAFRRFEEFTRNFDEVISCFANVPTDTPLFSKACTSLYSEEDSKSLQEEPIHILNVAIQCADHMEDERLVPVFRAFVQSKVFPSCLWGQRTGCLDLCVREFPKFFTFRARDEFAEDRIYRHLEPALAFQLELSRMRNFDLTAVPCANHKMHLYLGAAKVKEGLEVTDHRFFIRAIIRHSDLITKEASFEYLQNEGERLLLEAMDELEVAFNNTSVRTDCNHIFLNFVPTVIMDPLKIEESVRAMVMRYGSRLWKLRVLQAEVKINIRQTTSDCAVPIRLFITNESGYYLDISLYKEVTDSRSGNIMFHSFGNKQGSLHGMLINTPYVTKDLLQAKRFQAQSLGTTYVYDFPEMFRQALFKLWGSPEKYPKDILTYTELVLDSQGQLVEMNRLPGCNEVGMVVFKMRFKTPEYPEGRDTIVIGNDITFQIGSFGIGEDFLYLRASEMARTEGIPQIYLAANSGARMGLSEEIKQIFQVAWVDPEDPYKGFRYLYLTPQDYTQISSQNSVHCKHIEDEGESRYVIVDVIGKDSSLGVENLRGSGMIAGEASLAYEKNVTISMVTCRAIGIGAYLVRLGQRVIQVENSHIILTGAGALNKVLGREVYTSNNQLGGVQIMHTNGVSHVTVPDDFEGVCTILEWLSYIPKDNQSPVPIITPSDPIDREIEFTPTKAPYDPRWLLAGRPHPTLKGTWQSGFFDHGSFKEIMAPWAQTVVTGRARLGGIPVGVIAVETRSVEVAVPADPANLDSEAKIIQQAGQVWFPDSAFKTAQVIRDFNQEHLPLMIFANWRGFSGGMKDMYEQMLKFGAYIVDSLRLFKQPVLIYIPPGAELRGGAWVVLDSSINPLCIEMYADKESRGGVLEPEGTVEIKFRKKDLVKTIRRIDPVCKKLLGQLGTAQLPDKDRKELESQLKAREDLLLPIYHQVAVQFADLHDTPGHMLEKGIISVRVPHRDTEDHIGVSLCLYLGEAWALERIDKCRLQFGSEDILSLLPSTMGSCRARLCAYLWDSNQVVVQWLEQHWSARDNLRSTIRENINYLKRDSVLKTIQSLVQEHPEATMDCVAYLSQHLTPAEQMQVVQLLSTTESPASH
Description: (§1) To investigate the biological activities of the synthesized compounds, the in vitro inhibitory activities of these compounds against both rat ACC1 and ACC2 were evaluated according to the previous experimental method with some changes. The ACC1 and ACC2 enzymes were supplied by Huawei Pharmaceutical Co. Ltd (Shanghai, China). […] Then, the solution was diluted with buffer solution until it reached the required concentration (1 nM to 10 μM) and 5μL of the dilution was added to a 50 μL reaction mixture containing 30 mM HEPES, pH 7.4, 2 mM MgCl2, 2 mM sodium citrate, 1 mM DTT, 25 μM ATP, 16 mM NaHCO3 and 15 μM acetyl-CoA. All of the enzymatic reactions were conducted at 30 °C for 60 min. The assay was performed using Kinase-Glo Plus luminescence kinase assay kit (Beijing, China), which measures kinase activity by quantifying the amount of ATP remaining in solution following a kinase reaction. The luminescent signal from the assay […] with the amount of kinase activity. The same concentrations of DMSO were tested in parallel and used as background control. The inhibition percentage was expressed as the average value from three independent experiments.

rat ACC1 = target: T2, rat ACC1 (Rattus norvegicus, UniProt P11497); test: ACC1 in vitro assay (Kinase-Glo Plus luminescence); type: biochemical; settings: arithmetic means of three experiments, standard deviation in parentheses
T2 construct: purchased Huawei Pharmaceutical Co. Ltd (Shanghai, China)
Description: as §1

ACC2 = tested on: ACC2; set-up: method as in PMID 12842871, PMID 25333641; settings: ACC2 from mammalia; read-out: IC50 against ACC2; cited from earlier work
ACC1 = tested on: ACC1; set-up: method as in PMID 12842871, PMID 25333641; settings: ACC1 from mammalia; read-out: IC50 against ACC1; cited from earlier work

IC50 (rat ACC2) [nM] | IC50 (rat ACC1) [nM] | melting point [°C] | Structure (SMILES) | TC50 (concentration which reduces the cell viability by 50%) [1] [nM] | IC50 (ACC2) [nM] | IC50 (ACC1) [nM]
382 | 750 |  | COc1ccc(-c2cc(C(=O)N3CCC(N4CCC[C@@H](C(=O)N5CCCC5)C4)CC3)c3ccccc3n2)cc1 [7e, (R)-(2-(4-Methoxyphenyl)quinolin-4-yl)(3-(pyrrolidine-1-carbonyl)-[1,4'-bipiperidin]-1'-yl)methanone] | >100000 |  | 
205 | 940 | 101 to 102 | CCN(CC)C(=O)[C@@H]1CCCN(C2CCN(C(=O)c3cc(-c4ccc(OC)cc4)nc4ccccc34)CC2)C1 [7c, (R)-N,N-Diethyl-1'-(2-(4-methoxyphenyl)quinoline-4-carbonyl)-[1,4'-bipiperidine]-3-carboxamide] | >100000 |  | 
185 |  |  | O=C(c1c2ccccc2cc2ccccc12)N1CCC(N2CCC[C@@H](C(=O)N3CCOCC3)C2)CC1 [CP-640186, reference compound] | >100000 | ~50 | ~50
> 1000 | > 1000 |  | O=C1CC2(CCN(C(=O)c3cc(Cl)nc4ccccc34)CC2)Oc2ccccc21 [12f, 1'-(2-Chloroquinoline-4-carbonyl)spiro[chroman-2,4'-piperidin]-4-one] |  |  | 
360 | 750 | 90 to 92 | COc1ccc(-c2cc(C(=O)N3CCC(N4CCC[C@@H](C(=O)N(C)Cc5ccccc5)C4)CC3)c3ccccc3n2)cc1 [7b, (R)-N-Benzyl-1'-(2-(4-methoxyphenyl)quinoline-4-carbonyl)-N-methyl-[1,4'-bipiperidine]-3-carbox-amide] | >100000 |  | 
810 | 860 | 92 to 93 | O=C(c1cc(-c2ccccc2)nc2ccccc12)N1CCC(N2CCC[C@@H](C(=O)N3CCOCC3)C2)CC1 [7g, (R)-(3-(Morpholino-4-carbonyl)-[1,4'-bipiperidin]-1'-yl)(2-phenylquinolin-4-yl)methanone] | >100000 |  | 
650 | 600 |  | COc1ccc(-c2cc(C(=O)N3CCC4(CC3)CC(=O)c3ccccc3O4)c3ccccc3n2)cc1 [12a, 1'-(2-(4-Methoxyphenyl)quinoline-4-carbonyl)spiro[chroman-2,4'-piperidin]-4-one] | >100000 |  | 
> 1000 | > 1000 |  | Cc1ccccc1-c1cc(C(=O)N2CCC3(CC2)CC(=O)c2ccccc2O3)c2ccccc2n1 [12c, 1'-(2-(o-Tolyl)quinoline-4-carbonyl)spiro[chroman-2,4'-piperidin]-4-one] |  |  | 
820 | 760 |  | COc1ccc(-c2cc(C(=O)N3CCC4(CC3)CC(=O)c3ccccc3O4)c3ccccc3n2)cc1OC [12b, 1'-(2-(3,4-Dimethoxyphenyl)quinoline-4-carbonyl)spiro[chroman-2,4'-piperidin]-4-one] | >100000 |  | 
294 | 620 | 108 to 110 | COc1ccc(-c2cc(C(=O)N3CCC(N4CCC[C@@H](C(=O)N5CCN(C)CC5)C4)CC3)c3ccccc3n2)cc1 [7d, (R)-(2-(4-Methoxyphenyl)quinolin-4-yl)(3-(4-methylpiperazine-1-carbonyl)-[1,4'-bipiperidin]-1'-yl)-methanone] | >100000 |  | 
> 1000 | > 1000 |  | O=C1CC2(CCN(C(=O)c3cc(-c4ccc(Cl)cc4)nc4ccccc34)CC2)Oc2ccccc21 [12e, 1'-(2-(4-Chlorophenyl)quinoline-4-carbonyl)spiro[chroman-2,4'-piperidin]-4-one] |  |  | 
172 | 189 |  | COc1ccc(-c2cc(C(=O)N3CCC(N4CCC[C@@H](C(=O)N5CCOCC5)C4)CC3)c3ccccc3n2)cc1 [7a, (R)-(2-(4-Methoxyphenyl)quinolin-4-yl)(3-(morpholine-4-carbonyl)-[1,4′-bipiperidin]-1′-yl)methanone] | >100000 |  | 
> 1000 | > 1000 | 138 to 140 | O=C1CC2(CCN(C(=O)c3cc(N4CCOCC4)nc4ccccc34)CC2)Oc2ccccc21 [12g, 1'-(2-Morpholinoquinoline-4-carbonyl)spiro[chroman-2,4'-piperidin]-4-one] |  |  | 
> 1000 | > 1000 |  | O=C(c1cc(-c2ccccc2Cl)nc2ccccc12)N1CCC(N2CCC[C@@H](C(=O)N3CCOCC3)C2)CC1 [7i, (R)-(2-(2-Chlorophenyl)quinolin-4-yl)(3-(morpholine-4-carbonyl)-[1,4'-bipiperidin]-1'-yl)methanone] |  |  | 
920 | > 1000 | 89 to 91 | COc1ccc(-c2cc(C(=O)N3CCC(N4CCC[C@@H](C(=O)N5CCCCC5)C4)CC3)c3ccccc3n2)cc1 [7f, (R)-(2-(4-Methoxyphenyl)quinolin-4-yl)(3-(piperidine-1-carbonyl)-[1,4′-bipiperidin]-1′-yl)methanone] |  |  | 
940 | > 1000 |  | O=C1CC2(CCN(C(=O)c3cc(-c4ccccc4Cl)nc4ccccc34)CC2)Oc2ccccc21 [12d, 1'-(2-(2-Chlorophenyl)quinoline-4-carbonyl)spiro[chroman-2,4'-piperidin]-4-one] |  |  | 
> 1000 | > 1000 | 87 to 89 | O=C(c1cc(-c2ccc(Cl)cc2)nc2ccccc12)N1CCC(N2CCC[C@@H](C(=O)N3CCOCC3)C2)CC1 [7h, (R)-(2-(4-Chlorophenyl)quinolin-4-yl)(3-(morpholine-4-carbonyl)-[1,4'-bipiperidin]-1'-yl)methanone] |  |  | 
